Assays:
Assay type in all cases: in vivo
Boophilus microplus = Boophilus microplus injection test; settings: application rate 20 μg/animal, assessed after 7 days by laying of fertile eggs
Protocol: Boophilus microplus—Injection Test
(§1) Solvent: dimethyl sulfoxide
To produce a suitable active compound preparation, 10 mg of active compound are mixed with 0.5 ml of solvent and the concentrate is diluted to the desired concentration with solvent.
1 μl of the active ingredient solution is injected into the abdomen of 5 engorged adult female cattle ticks (Boophilus microplus). The animals are transferred into dishes and kept in a climate-controlled room.
Efficacy is assessed after 7 days by laying of fertile eggs. Eggs which are not visibly fertile are stored in a climate-controlled cabinet until the larvae hatch after about 42 days. An efficacy of 100% means that none of the ticks has laid any fertile eggs; 0% means that all the eggs are fertile.

Rhipicephalus sanguineus = Rhipicephalus sanguineus in vitro contact test with adult brown dog ticks; settings: application rate 5 μg/cm^2 (=500 g/ha), after 48 h, adult dog ticks dead or moribund
Protocol: Rhipicephalus sanguineus—In Vitro Contact Tests with Adult Brown Dog Ticks
(§2) For the coating of the test tubes, 9 mg of active ingredient are first dissolved in 1 ml of acetone p.a. and then diluted to the desired concentration with acetone p.a. 250 μl of the solution are distributed homogeneously on the inner walls and the base of a 25 ml glass tube by turning and rocking on an orbital shaker (rocking rotation at 30 rpm for 2 h). With 900 ppm of active ingredient solution and internal surface area 44.7 cm^2, given homogeneous distribution, an area-based dose of 5 μg/cm^2 is achieved.
After the solvent has evaporated off, the tubes are populated with 5-10 adult dog ticks (Rhipicephalus sanguineus), sealed with a perforated plastic lid and incubated in a horizontal position in the dark at room temperature and ambient humidity. After 48 h, efficacy is determined. To this end, the ticks are knocked to the base of the tube and incubated on a hotplate at 45-50° C. for not more than 5 min. Ticks which remain motionless on the base or move in such an uncoordinated manner that they are unable to deliberately avoid the heat by climbing upwards are considered to be dead or moribund.
An efficacy of 100% means that all the ticks were dead or moribund. 0% efficacy means that none of the ticks were harmed.

Ctenocephalides felis [1] = assay: Ctenocephalides felis oral test; settings: application rate 100 ppm in citrated cattle blood, after 2 days
Protocol: Ctenocephalides felis—Oral Test
as §1
To produce a suitable active ingredient formulation, 10 mg of active ingredient are mixed with 0.5 ml of dimethyl sulfoxide. Dilution with citrated cattle blood gives the desired concentration.
About 20 unfed adult cat fleas (Ctenocephalides felis) are placed into a chamber which is closed at the top and bottom with gauze. A metal cylinder whose bottom end is closed with parafilm is placed onto the chamber. The cylinder contains the blood/active ingredient formulation, which can be imbibed by the fleas through the parafilm membrane.
After 2 days, the rate of extermination in % is determined. 100% means that all of the fleas have been killed; 0% means that none of the fleas have been killed.

Phaedon cochleariae = Phaedon cochleariae spray test (PHAECO); settings: application rate 100 g/ha, spray, after 7 days; for pest or weed control at 100 g/ha: Phaedon cochleariae, 168 h, read-out: efficacy
Protocol: Phaedon cochleariae—Spray Test
(§3) To produce a suitable active ingredient formulation, 1 part by weight of active ingredient is dissolved with the specified parts by weight of solvent and made up to the desired concentration with water containing an emulsifier concentration of 1000 ppm. To produce further test concentrations, the formulation is diluted with emulsifier-containing water.
After 7 days, the efficacy in % is determined. 100% means that all the beetle larvae have been killed; 0% means that no beetle larvae have been killed.
Phaedon cochleariae—Spray Test (PHAECO)
as §3, with “compound” for “ingredient”
Discs of Chinese cabbage leaves (Brassica pekinensis) are sprayed with an active compound formulation of the desired concentration and, after drying, populated with larvae of the mustard beetle (Phaedon cochleariae).
After the desired time, the efficacy in % is determined. 100% means that all the beetle larvae have been killed; 0% means that no beetle larvae have been killed.

[2] = tested on: Anopheles gambiae strain RSPH (homozygot kdr); assay: Anopheles test (ANPHGB surface treatment); settings: application rate 100 mg/m^2, glazed tile, exposure 30 minutes, 24 hours after contact, read-out: efficacy (mortality)
Protocol: Anopheles Test (ANPHGB Surface Treatment)
(§4) Solvent: acetone+2000 ppm rapeseed oil methyl ester (RME)
(§5) To produce a suitable active compound formulation, the active compound is dissolved in the solvent (2 mg/ml). The active compound formulation is pipetted onto a glazed tile and, after it has dried off, adult mosquitoes of the species Anopheles gambiae strain RSPH (homozygot kdr) are placed onto the treated tile. The exposure time is 30 minutes.
(§6) 24 hours after contact with the treated surface, mortality in % is determined. 100% means that all mosquitoes have been killed; 0% means that none of the mosquitoes have been killed.

Spodoptera frugiperda = Spodoptera frugiperda spray test (SPODFR); settings: application rate 100 g/ha, spray, after 7 days; for pest or weed control at 100 g/ha: Spodoptera frugiperda, 168 h, read-out: efficacy
Protocol: Spodoptera frugiperda—Spray Test
as §3
Leaf discs of maize (Zea mays) are sprayed with an active ingredient formulation of the desired concentration and, after drying, populated with caterpillars of the armyworm (Spodoptera frugiperda).
After 7 days, the efficacy in % is determined. 100% means that all the caterpillars have been killed; 0% means that no caterpillar has been killed.
Spodoptera frugiperda—Spray Test (SPODFR)
as §3, with “compound” for “ingredient”
Leaf discs of maize (Zea mays) are sprayed with an active compound formulation of the desired concentration and, after drying, populated with caterpillars of the armyworm (Spodoptera frugiperda).
After the desired time, the efficacy in % is determined. 100% means that all the caterpillars have been killed; 0% means that no caterpillar has been killed.

Lucilia cuprina = Lucilia cuprina test; settings: application rate 100 ppm, L1 larvae, after 2 days
Protocol: as §1
(§7) To produce a suitable active ingredient formulation, 10 mg of active ingredient are mixed with 0.5 ml of dimethyl sulfoxide, and the concentrate is diluted with water to the desired concentration.
About 20 L1 larvae of the Australian sheep blowfly (Lucilia cuprina) are transferred into a test vessel containing minced horsemeat and the active compound preparation of the desired concentration.
After 2 days, the rate of extermination in % is determined. 100% means that all the larvae have been killed; 0% means that no larvae have been killed.

[3] = tested on: Aedes aegypti strain MONHEIM; assay: Aedes test (AEDSAE surface treatment); settings: application rate 100 mg/m^2, glazed tile, exposure 30 minutes, 24 hours after contact, read-out: efficacy (mortality)
Protocol: Aedes Test (AEDSAE Surface Treatment)
as §4
as §5, with “Aedes aegypti” for “Anopheles gambiae”, “MONHEIM” for “RSPH (homozygot kdr)”
as §6

[4] = tested on: Anopheles funestus strain FUMOZ-R; assay: Anopheles test (ANPHFU surface treatment); settings: application rate 100 mg/m^2, glazed tile, exposure 30 minutes, 24 hours after contact, read-out: efficacy (mortality)
Protocol: Anopheles Test (ANPHFU Surface Treatment)
as §4
as §5, with “funestus” for “gambiae”, “FUMOZ-R (Hunt et al., Med Vet Entomol. 2005 September; 19(3):271-5)” for “RSPH (homozygot kdr)”
as §6

Tetranychus urticae = Tetranychus urticae spray test, OP-resistant (TETRUR); settings: spray, after 6 days
Protocol: Tetranychus urticae—Spray Test, OP-Resistant
as §3
Discs of bean leaves (Phaseolus vulgaris) infested with all stages of the greenhouse red spider mite (Tetranychus urticae) are sprayed with an active compound preparation of the desired concentration.
After 6 days, the efficacy in % is determined. 100% means that all the spider mites have been killed; 0% means that no spider mites have been killed.
Tetranychus urticae—Spray Test; OP-Resistant (TETRUR)
as §3, with “compound” for “ingredient”
Discs of bean leaves (Phaseolus vulgaris) infested with all stages of the greenhouse red spider mite (Tetranychus urticae) are sprayed with an active compound formulation of the desired concentration.
After the desired time, the efficacy in % is determined. 100% means that all the spider mites have been killed; 0% means that no spider mites have been killed.

Myzus persicae [5] = assay: Myzus persicae oral test; settings: application rate 4 ppm, after 5 days
Protocol: To produce a suitable active compound preparation, 1 part by weight of active compound is dissolved with the specified amounts by weight of solvent and made up to the desired concentration with water.
50 ul of the active compound preparation are transferred to microtiter plates and made up to a final volume of 200 μl with 150 μl of IPL41 insect medium (33%+15% sugar). Then the plates are sealed with parafilm through which a mixed population of the green peach aphid (Myzus persicae), which is located in a second microtiter plate, can pierce and absorb the solution.
(§8) After 5 days, the efficacy in % is determined. 100% means that all the aphids have been killed; 0% means that no aphids have been killed.

Musca domestica = Musca domestica test; settings: application rate 100 ppm, adult houseflies, after 2 days
Protocol: as §1, §7
Vessels containing a sponge treated with sugar solution and the active ingredient formulation of the desired concentration are populated with 10 adult houseflies (Musca domestica).
After 2 days, the rate of extermination in % is determined. 100% means that all of the flies have been killed; 0% means that none of the flies have been killed.

Ctenocephalides felis [6] = assay: Ctenocephalides felis in vitro contact test with adult cat fleas; settings: application rate 5 μg/cm^2 (=500 g/ha), after 48 h, adult cat fleas dead or moribund
Protocol: Ctenocephalides felis—In Vitro Contact Tests with Adult Cat Fleas
as §2
After the solvent has evaporated off, the tubes are populated with 5-10 adult cat fleas (Ctenocephalides felis), sealed with a perforated plastic lid and incubated in a horizontal position at room temperature and ambient humidity. After 48 h, efficacy is determined. To this end, the tubes are stood upright and the fleas are knocked to the base of the tube. Fleas which remain motionless at the base or move in an uncoordinated manner are considered to be dead or moribund.
100% efficacy means that all the fleas were dead or moribund. 0% efficacy means that no fleas were harmed.

Myzus persicae [7] = assay: Myzus persicae spray test (MYZUPE); settings: application rate 100 g/ha, spray, after 5 days
Protocol: Myzus persicae—Spray Test
as §3
Discs of Chinese cabbage leaves (Brassica pekinensis) infested by all stages of the green peach aphid (Myzus persicae) are sprayed with an active compound preparation of the desired concentration.
as §8
Myzus Persicae—Spray Test (MYZUPE)
as §3, with “compound” for “ingredient”
Discs of Chinese cabbage leaves (Brassica pekinensis) infested with all stages of the green peach aphid (Myzus persicae) are sprayed with an active compound formulation of the desired concentration.
After the desired time, the efficacy in % is determined. 100% means that all the aphids have been killed; 0% means that no aphids have been killed.

Cn1cc(-c2cnn(-c3c(Cl)cc(C(F)(C(F)(F)F)C(F)(F)F)cc3Cl)c2)cc1C(=O)NC1CC1 [I-T1-3, N-cyclopropyl-4-{1-[2,6-dichloro-4-(1,1,1,2,3,3,3-heptafluoropropan-2-yl)phenyl]-1H-pyrazol-4-yl}-1-methyl-1H-pyrrole-2-carboxamide]
80 to 100%: mortality at 100 mg/m2 [2]
100%: efficacy (Boophilus microplus) | efficacy (Rhipicephalus sanguineus) | efficacy (rate of extermination) (Ctenocephalides felis [1]) | pest or weed control at 100 g/ha (Phaedon cochleariae) | pest or weed control at 100 g/ha (Spodoptera frugiperda) | efficacy (rate of extermination) (Lucilia cuprina)

Cn1c(C(=O)NC2CC2)cc(-c2cnn(-c3c(Cl)cc(C(F)(C(F)(F)F)C(F)(F)F)cc3Cl)c2)c1Cl [I-T1-9, 5-chloro-N-cyclopropyl-4-{1-[2,6-dichloro-4-(1,1,1,2,3,3,3-heptafluoropropan-2-yl)phenyl]-1H-pyrazol-4-yl}-1-methyl-1H-pyrrole-2-carboxamide]
80 to 100%: mortality at 100 mg/m2 [3] | mortality at 100 mg/m2 [4] | mortality at 100 mg/m2 [2]
100%: pest or weed control at 100 g/ha (Phaedon cochleariae) | pest or weed control at 100 g/ha (Spodoptera frugiperda)

Cc1sc(-c2cnn(-c3c(Cl)cc(C(F)(C(F)(F)F)C(F)(F)F)cc3Cl)c2)cc1C(=O)NC1(C#N)CC1 [I-T1-10]
100%: efficacy (Boophilus microplus) | efficacy (rate of extermination) (Ctenocephalides felis [1]) | efficacy (Phaedon cochleariae) | efficacy (Tetranychus urticae; application rate 20 g/ha) | efficacy (Tetranychus urticae; application rate 100 g/ha) | efficacy (Myzus persicae [5]) | efficacy (rate of extermination) (Musca domestica) | efficacy (Spodoptera frugiperda) | efficacy (rate of extermination) (Lucilia cuprina)

O=C(NC1CC1)c1csc(-c2cnn(-c3c(Cl)cc(C(F)(C(F)(F)F)C(F)(F)F)cc3Cl)c2)c1 [I-T1-12, N-cyclopropyl-5-{1-[2,6-dichloro-4-(1,1,1,2,3,3,3-heptafluoropropan-2-yl)phenyl]-1H-pyrazol-4-yl}thiophene-3-carboxamide]
100%: efficacy (Rhipicephalus sanguineus) | efficacy (rate of extermination) (Ctenocephalides felis [1]) | pest or weed control at 100 g/ha (Phaedon cochleariae) | efficacy (Ctenocephalides felis [6]) | efficacy (Myzus persicae [5]) | efficacy (rate of extermination) (Musca domestica) | pest or weed control at 100 g/ha (Spodoptera frugiperda) | efficacy (rate of extermination) (Lucilia cuprina)

N#CC1(NC(=O)c2csc(-c3cnn(-c4c(Cl)cc(C(F)(C(F)(F)F)C(F)(F)F)cc4Cl)c3)c2)CC1 [I-T1-13, N-(1-cyanocyclopropyl)-5-{1-[2,6-dichloro-4-(1,1,1,2,3,3,3-heptafluoropropan-2-yl)phenyl]-1H-pyrazol-4-yl}thiophene-3-carboxamide]
100%: efficacy (Boophilus microplus) | efficacy (rate of extermination) (Ctenocephalides felis [1]) | pest or weed control at 100 g/ha (Phaedon cochleariae) | efficacy (Tetranychus urticae; application rate 100 g/ha) | efficacy (rate of extermination) (Musca domestica) | pest or weed control at 100 g/ha (Spodoptera frugiperda) | efficacy (rate of extermination) (Lucilia cuprina)
90%: efficacy (Tetranychus urticae; application rate 20 g/ha)
80 to 100%: mortality at 100 mg/m2 [3]

O=C(NC1CC1)c1cc(-c2cnn(-c3c(Cl)cc(C(F)(C(F)(F)F)C(F)(F)F)cc3Cl)c2)sc1Cl [I-T1-16, 2-chloro-N-cyclopropyl-5-{1-[2,6-dichloro-4-(1,1,1,2,3,3,3-heptafluoropropan-2-yl)phenyl]-1H-pyrazol-4-yl}thiophene-3-carboxamide]
90%: efficacy (Tetranychus urticae; application rate 20 g/ha)
100%: efficacy (Myzus persicae [7]) | pest or weed control at 100 g/ha (Phaedon cochleariae) | efficacy (Tetranychus urticae; application rate 100 g/ha) | efficacy (Myzus persicae [5]) | pest or weed control at 100 g/ha (Spodoptera frugiperda)
